Data from patent US10766869B2, “Triazoles for the treatment of demyelinating dieases” (Vertex Pharmaceuticals Incorporated, priority 2015, dated 2020).

System: primary rat mixed cortical cells
Experiment: In vitro myelination assay (MBP positive myelin strands, fold myelin pixels above background)
Type: cell-based
Details: Rattus norvegicus, relative to baseline of no added compound, read-out: Fold myelin pixels above background; for fold induction at 1 µM: 1.0 μM compound; for fold induction at 10 µM: 10.0 μM compound
Outline: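 P1 rat mixed cortical cultures (neurons, OPCs, oligodendrocytes, astrocytes, microglia) grown 14 days at 37 °C with compound, half-medium refreshed with compound on days 6 and 10. Fixed cells stained for MBP; MBP-positive myelin strand pixels per well quantified by automated imaging, reported as fold over no-compound baseline at 1.0 and 10.0 μM.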

SMILES	fold induction at 1 µM	fold induction at 10 µM
Cc1c(Nc2ncn(-c3cc(F)cc(F)c3)n2)cc(N2CC(N3CCOCC3)C2)cc1OC(C)C [Compound 641, 1-(3,5-difluorophenyl)-N-[3-isopropoxy-2-methyl-5-(3-morpholinoazetidin-1-yl)phenyl]-1,2,4-triazol-3-amine]	10 to 100	1 to 10
Fc1cc(Nc2ncn(-c3ccccn3)n2)cc(N2CCN(C3COC3)CC2)c1 [Compound 642, N-[3-fluoro-5-[4-(oxetan-3-yl)piperazin-1-yl]phenyl]-1-(2-pyridyl)-1,2,4-triazol-3-amine]	1 to 10	10 to 100
Cc1cc(Nc2ncn(-c3ccccc3)n2)cc(Nc2nccs2)c1 [Compound 643, 5-methyl-N3-(1-phenyl-1,2,4-triazol-3-yl)-N1-thiazol-2-yl-benzene-1,3-diamine]	10 to 100	≤ 1
Cc1cc(Nc2ncn(-c3cccc(C(F)(F)F)c3)n2)cc(OCCn2cccn2)c1 [Compound 644, N-[3-methyl-5-(2-pyrazol-1-ylethoxy)phenyl]-1-[3-(trifluoromethyl)phenyl]-1,2,4-triazol-3-amine]	1 to 10	10 to 100
COCC1CCN(c2cc(C(F)F)cc(Nc3ncn(-c4cccc(C(F)F)c4)n3)n2)CC1 [Compound 645, 4-(difluoromethyl)-N-[1-[3-(difluoromethyl)phenyl]-1,2,4-triazol-3-yl]-6-[4-(methoxymethyl)-1-piperidyl]pyridin-2-amine]	1 to 10	10 to 100
COc1c(F)cc(-n2cnc(Nc3cc(C)cc(N4CCN(C5COC5)CC4)c3)n2)cc1F [Compound 646, 1-(3,5-difluoro-4-methoxy-phenyl)-N-[3-methyl-5-[4-(oxetan-3-yl)piperazin-1-yl]phenyl]-1,2,4-triazol-3-amine]	10 to 100	1 to 10
Cc1cc(-n2cnc(Nc3cc(F)cc(N4CCN(C5COC5)CC4)c3)n2)ccc1F [Compound 647, 1-(4-fluoro-3-methyl-phenyl)-N-[3-fluoro-5-[4-(oxetan-3-yl)piperazin-1-yl]phenyl]-1,2,4-triazol-3-amine]	1 to 10	≤ 1
Cc1cc(Nc2ncn(-c3cc(F)cc(F)c3)n2)cc(OCC2CCOC2)c1 (centres unmarked) [Compound 648, 1-(3,5-difluorophenyl)-N-[3-methyl-5-(tetrahydrofuran-3-ylmethoxy)phenyl]-1,2,4-triazol-3-amine]	10 to 100	10 to 100
CN1CCN(c2cc(N3CCN(C4COC4)CC3)cc(Nc3ncn(-c4cc(F)cc(F)c4)n3)n2)CC1 [Compound 650, N-[1-(3,5-difluorophenyl)-1,2,4-triazol-3-yl]-6-(4-methylpiperazin-1-yl)-4-[4-(oxetan-3-yl)piperazin-1-yl]pyridin-2-amine]	10 to 100	1 to 10
Cc1cc(Nc2ncn(-c3cccc(C(F)(F)F)c3)n2)cc(N2CC(N3CCOCC3)C2)c1 [Compound 651, N-[3-methyl-5-(3-morpholinoazetidin-1-yl)phenyl]-1-[3-(trifluoromethyl)phenyl]-1,2,4-triazol-3-amine]	10 to 100	1 to 10
Cc1cc(Nc2ncn(-c3cc(F)cc(F)c3)n2)cc(N2CC(N3CCOC4CC43)C2)c1 (centres unmarked) [Compound 652, 1-(3,5-difluorophenyl)-N-[3-methyl-5-[3-(5-oxa-2-azabicyclo[4.1.0]heptan-2-yl)azetidin-1-yl]phenyl]-1,2,4-triazol-3-amine]	10 to 100	≤ 1
CC(C)Oc1cc(Nc2ncn(-c3cc(F)cc(F)c3)n2)cc(N2CCN(C3COC3)CC2)c1 [Compound 653, 1-(3,5-difluorophenyl)-N-[3-isopropoxy-5-[4-(oxetan-3-yl)piperazin-1-yl]phenyl]-1,2,4-triazol-3-amine]	10 to 100	≤ 1
CCN1CCN(c2cc(C(F)(F)F)cc(Nc3ncn(-c4cc(F)cc(F)c4)n3)n2)CC1 [Compound 654, N-[1-(3,5-difluorophenyl)-1,2,4-triazol-3-yl]-6-(4-ethylpiperazin-1-yl)-4-(trifluoromethyl)pyridin-2-amine]	1 to 10	1 to 10
N#Cc1cc(Nc2ncn(-c3ccc(F)c(F)c3)n2)cc(N2CCN(C3COC3)CC2)c1 [Compound 656, 3-[[1-(3,4-difluorophenyl)-1,2,4-triazol-3-yl]amino]-5-[4-(oxetan-3-yl)piperazin-1-yl]benzonitrile]	1 to 10	≤ 1
CN1CCN(c2cc(Nc3ncn(-c4cc(F)cc(F)c4)n3)cc(N3CCN(C)CC3)c2)CC1 [Compound 657, N-[3,5-bis(4-methylpiperazin-1-yl)phenyl]-1-(3,5-difluorophenyl)-1,2,4-triazol-3-amine]	1 to 10	≤ 1
Cc1cc(Nc2ncn(-c3ccc(F)c(F)c3)n2)cc(N2CC(N3CCCOCC3)C2)c1 [Compound 659, 1-(3,4-difluorophenyl)-N-[3-methyl-5-[3-(1,4-oxazepan-4-yl)azetidin-1-yl]phenyl]-1,2,4-triazol-3-amine]	10 to 100	10 to 100

SMILES	fold induction at 1 µM	fold induction at 10 µM
Fc1cc(F)cc(-n2cnc(Nc3cc(N4CC(N5CCOCC5)C4)cc(Cl)n3)n2)c1 [Compound 660, 6-chloro-N-[1-(3,5-difluorophenyl)-1,2,4-triazol-3-yl]-4-(3-morpholinoazetidin-1-yl)pyridin-2-amine]	≤ 1	≤ 1
Cc1cc(Nc2ncn(-c3cc(F)cc(F)c3)n2)cc(N2CC(N3CCS(=O)(=O)CC3)C2)c1 [Compound 661, 1-(3,5-difluorophenyl)-N-[3-[3-(1,1-dioxo-1,4-thiazinan-4-yl)azetidin-1-yl]-5-methyl-phenyl]-1,2,4-triazol-3-amine]	10 to 100	1 to 10
COc1cc(Nc2ncn(-c3cccc(C(F)(F)F)c3)n2)cc(N2CCN(C3COC3)CC2)c1 [Compound 662, N-[3-methoxy-5-[4-(oxetan-3-yl)piperazin-1-yl]phenyl]-1-[3-(trifluoromethyl)phenyl]-1,2,4-triazol-3-amine]	10 to 100	≤ 1
Cc1cc(Nc2ncn(-c3cc(F)cc(F)c3)n2)cc(C2CN(C3COC3)CC(C)O2)c1 (centres unmarked) [Compound 663, 1-(3,5-difluorophenyl)-N-[3-methyl-5-[6-methyl-4-(oxetan-3-yl)morpholin-2-yl]phenyl]-1,2,4-triazol-3-amine]	10 to 100	≤ 1
CNC(=O)c1cc(Nc2ncn(-c3cc(F)cc(F)c3)n2)nc(N2CCN(C3COC3)CC2)c1 [Compound 664, 2-[[1-(3,5-difluorophenyl)-1,2,4-triazol-3-yl]amino]-N-methyl-6-[4-(oxetan-3-yl)piperazin-1-yl]pyridine-4-carboxamide]	1 to 10	1 to 10
N#Cc1cc(Nc2ncn(-c3cnccn3)n2)cc(N2CCOCC2)c1 [Compound 666, 3-morpholino-5-[(1-pyrazin-2-yl-1,2,4-triazol-3-yl)amino]benzonitrile]	10 to 100	1 to 10
N#Cc1cc(Nc2ncn(-c3ccc(F)c(F)c3)n2)cc(N2CCOCC2)c1 [Compound 668, 3-[[1-(3,4-difluorophenyl)-1,2,4-triazol-3-yl]amino]-5-morpholino-benzonitrile]	1 to 10	1 to 10
Cc1cc(Nc2ccn(C(C)C)n2)cc(Nc2ncn(-c3ccccc3)n2)c1 [Compound 669, N3-(1-isopropylpyrazol-3-yl)-5-methyl-N1-(1-phenyl-1,2,4-triazol-3-yl)benzene-1,3-diamine]	10 to 100	≤ 1
Cc1cc(Nc2ncn(-c3cc(F)cc(F)c3)n2)cc(N2CC(N3CCOC[C@H]3C)C2)c1 [Compound 670, 1-(3,5-difluorophenyl)-N-[3-methyl-5-[3-[(3R)-3-methylmorpholin-4-yl]azetidin-1-yl]phenyl]-1,2,4-triazol-3-amine]	10 to 100	10 to 100
Cc1cc(Nc2ncn(-c3cccc(C(F)(F)F)c3)n2)cc(OCC2(C)COC2)c1 [Compound 671, N-[3-methyl-5-[(3-methyloxetan-3-yl)methoxy]phenyl]-1-[3-(trifluoromethyl)phenyl]-1,2,4-triazol-3-amine]	10 to 100	1 to 10
Fc1cc(F)cc(-n2cnc(Nc3cc(C(F)(F)F)cc(N4CCOCC4)n3)n2)c1 [Compound 674, N-[1-(3,5-difluorophenyl)-1,2,4-triazol-3-yl]-6-morpholino-4-(trifluoromethyl)pyridin-2-amine]	1 to 10	1 to 10
COC(=O)c1cc(Nc2ncn(-c3cc(F)cc(F)c3)n2)nc(N2CCOCC2)c1 [Compound 675, methyl 2-[[1-(3,5-difluorophenyl)-1,2,4-triazol-3-yl]amino]-6-morpholino-pyridine-4-carboxylate]	1 to 10	1 to 10
Cc1cc(Nc2ncn(C)n2)cc(Nc2ncn(-c3ccccc3)n2)c1 [Compound 676, 5-methyl-N3-(1-methyl-1,2,4-triazol-3-yl)-N1-(1-phenyl-1,2,4-triazol-3-yl)benzene-1,3-diamine]	10 to 100	≤ 1
Cc1cc(Nc2ncn(-c3cc(F)cc(F)c3)n2)cc(OCC2(C)COC2)c1 [Compound 677, 1-(3,5-difluorophenyl)-N-[3-methyl-5-[(3-methyloxetan-3-yl)methoxy]phenyl]-1,2,4-triazol-3-amine]	100 to 1000	≤ 1
N#Cc1cc(Nc2ncn(-c3cc(F)cc(F)c3)n2)cc(N2CCN(C3COC3)CC2)c1 [Compound 678, 3-[[1-(3,5-difluorophenyl)-1,2,4-triazol-3-yl]amino]-5-[4-(oxetan-3-yl)piperazin-1-yl]benzonitrile]	10 to 100	1 to 10
